Assay results taken from PubChem BioAssay (NCI).
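Where inhibition never reached the appropriate level, the endpoint shown equals the highest concentration tested. Otherwise, values were interpolated linearly from a five-concentration, 48-hour dose response in 96-well plates. Here, GI50 denotes the concentration required for 50% inhibition of growth. TGI denotes the concentration required for complete inhibition of growth.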

Key:
Test in all cases: inhibition of tumour cell growth, NCI panel, 48 h
EKVX NSCLC = system: EKVX NSCLC
HOP-62 NSCLC = system: HOP-62 NSCLC
KM12 colon = system: KM12 colon
LOX IMVI melanoma = system: LOX IMVI melanoma
M14 melanoma = system: M14 melanoma
MOLT-4 leukemia = system: MOLT-4 leukemia
OVCAR-4 ovarian = system: OVCAR-4 ovarian
RXF 393 renal = system: RXF 393 renal
SNB-19 CNS = system: SNB-19 CNS

SMILES | TGI (EKVX NSCLC) [µM] | TGI (HOP-62 NSCLC) [µM] | TGI (KM12 colon) [µM] | TGI (LOX IMVI melanoma) [µM] | TGI (M14 melanoma) [µM] | TGI (MOLT-4 leukemia) [µM] | TGI (OVCAR-4 ovarian) [µM] | TGI (RXF 393 renal) [µM] | TGI (SNB-19 CNS) [µM] | GI50 (EKVX NSCLC) [µM] | GI50 (HOP-62 NSCLC) [µM] | GI50 (MOLT-4 leukemia) [µM] | GI50 (OVCAR-4 ovarian) [µM] | GI50 (RXF 393 renal) [µM] | GI50 (SNB-19 CNS) [µM] | GI50 (KM12 colon) [µM] | GI50 (LOX IMVI melanoma) [µM] | GI50 (M14 melanoma) [µM]
CCn1cc(/C=C/C(C)c2cn(CC)c(=O)[nH]c2=O)c(=O)[nH]c1=O (stereo not given) | > 100 | > 100 | > 100 | > 100 | > 100 | > 100 | > 100 | > 100 | > 100 |  |  |  |  |  |  |  |  | 
CC1=CC(=O)CCC2(C)C1CC[C@@H]2OC=O (stereo not given in full) | > 100 | > 100 | > 100 | > 100 | > 100 | > 100 | > 100 | > 100 | > 100 |  |  |  |  |  |  |  |  | 
COC(=O)c1ccc2c(c1)nc(-c1cc3ccccc3[nH]c1=O)n2-c1cc(C(C)(C)C)[nH]n1 | > 100 | > 100 |  |  |  | > 100 | > 100 | > 29.8 | > 100 | 10 | 0.996 | 0.793 | > 100 | 2.83 | 7.59 |  |  | 
COc1ccc(/C(=N/NC(=O)NN)C(c2ccc(OC)cc2)C2(O)CNc3c(Cl)cc(Cl)cc32)cc1 (stereo not given) | > 100 | > 100 | > 100 | > 100 | > 100 | > 100 | > 100 | > 100 | > 100 |  |  |  |  |  |  |  |  | 
C=C/C=C(\NC(=O)C(Cl)(Cl)Cl)[Si](C)(C)C | > 100 | > 100 | > 100 | > 100 | > 100 | > 100 | > 100 | > 100 | > 100 |  |  |  |  |  |  |  |  | 
COC1(OC)CC2C=C(S(=O)(=O)c3ccccc3)C1N(Cc1ccccc1)C2=O (stereo not given) | > 100 | > 100 | 92.3 | 33.1 | 67.1 | > 100 | > 100 | 49.8 | > 100 |  |  |  |  |  |  |  |  | 
CC(=O)C1CC=C(C)CC1 (stereo not given) | > 100 | > 100 | > 100 | > 100 | > 100 | > 100 | > 100 | > 100 | > 100 |  |  |  |  |  |  |  |  | 
COC1=CC(O)(CC(N)=O)c2ccccc2C1=O (stereo not given) | > 100 | > 100 | > 100 | > 100 | > 100 | > 100 | > 100 | > 100 | > 100 |  |  |  |  |  |  |  |  | 
CC1C[C@H](OC(N)=O)C(C)CC1=O (stereo not given in full) | > 100 | > 100 | > 100 | > 100 | > 100 | > 100 | > 100 | > 100 | > 100 |  |  |  |  |  |  |  |  | 
CCC[CH2][Sn]([CH2]CCC)([O]C(=O)c1cc(F)cc(F)c1)[O]C(=O)c1cc(F)cc(F)c1 | 2.55 | 4.19 | 3 | 1.91 | 2.67 | 1.73 | 3.01 | 1.33 | 2.83 | 1.29 | 2.39 | 0.282 | 1.6 | 0.349 | 1.5 | 1.63 | 0.617 | 1.36
Cc1cc(N(CCC#N)S(C)(=O)=O)ccc1C=O |  | > 100 | > 100 | > 100 | > 100 | > 100 | > 100 | > 100 | > 100 |  |  |  |  |  |  |  |  | 
Brc1ccc(-c2nnc(-c3nn(-c4ccccc4)c4nc5ccccc5nc34)o2)cc1 | > 100 | > 100 | > 100 | > 100 | > 100 | > 100 | > 100 | > 100 | > 100 |  |  |  |  |  |  |  |  | 
N#CC(C(=O)/C(=N\Nc1nc(=S)[nH]n1N)C(C#N)c1ccc(Cl)cc1)c1ccc(Cl)cc1 (stereo not given) | > 100 | > 100 | > 100 | > 100 | > 100 |  | > 100 | > 100 | > 100 |  |  |  |  |  |  |  |  | 
O=C(CO)CC(=O)C(=O)Nc1nc([N+](=O)[O-])cs1 | > 100 | > 100 | > 100 | > 100 | > 100 | > 100 | > 100 | > 100 | > 100 |  |  |  |  |  |  |  |  | 
CC(=O)c1ccc(NC(=O)CSc2nnc(-c3cc(-c4ccc(C)cc4)nc4ccccc34)o2)cc1 | > 100 | 5.7 |  | 9.09 | > 100 | > 100 |  | 4.26 | 19.3 | 3.13 | 2.08 | 3.31 |  | 2.01 | 3.87 |  | 2.64 | 5.65
O=S(O)CCCCCSSCCCCSSCCCCCS(=O)O | > 100 | > 100 | > 100 | > 100 | > 100 | > 100 | > 100 | > 100 | > 100 |  |  |  |  |  |  |  |  | 

SMILES | TGI (EKVX NSCLC) [µM] | TGI (HOP-62 NSCLC) [µM] | TGI (KM12 colon) [µM] | TGI (LOX IMVI melanoma) [µM] | TGI (M14 melanoma) [µM] | TGI (MOLT-4 leukemia) [µM] | TGI (OVCAR-4 ovarian) [µM] | TGI (RXF 393 renal) [µM] | TGI (SNB-19 CNS) [µM] | GI50 (EKVX NSCLC) [µM] | GI50 (HOP-62 NSCLC) [µM] | GI50 (MOLT-4 leukemia) [µM] | GI50 (OVCAR-4 ovarian) [µM] | GI50 (RXF 393 renal) [µM] | GI50 (SNB-19 CNS) [µM] | GI50 (KM12 colon) [µM] | GI50 (LOX IMVI melanoma) [µM] | GI50 (M14 melanoma) [µM]
CCOC(=O)N1CCc2cc(OC)c(OC)c3c2C1CC3=O (stereo not given) |  | > 100 | > 100 | > 100 | > 100 | > 100 | > 100 | > 100 | > 100 |  |  |  |  |  |  |  |  | 
CCOc1ccc([C@@H]2[C@@H](Oc3ccccc3)C(=O)N2c2cc(OC)c(OC)c(OC)c2)cc1 | > 100 | > 100 | > 100 | > 100 | > 100 | > 100 | > 100 | > 100 | > 100 | 0.0937 | 0.0586 | 0.17 | 0.928 | 0.0446 | 0.289 | 0.0525 | 0.0642 | 0.04
CCOC(=O)C(=O)Nc1ccc(C)cc1C | > 100 | > 100 | > 100 | > 100 | > 100 | > 100 | > 100 | > 100 | > 100 |  |  |  |  |  |  |  |  | 
COc1ccc(C2=NNC(=O)OC2c2ccccc2)cc1 (stereo not given) | > 100 | > 100 | > 100 | > 100 | > 100 | > 100 | > 100 | > 100 | > 100 |  |  |  |  |  |  |  |  | 
Cn1c2c(c3ccccc31)C1CCCCC1C1C(=O)NC(=O)C21 (stereo not given) | > 100 |  | > 100 | > 100 | > 100 | 67.5 | > 100 | > 100 | > 100 |  |  |  |  |  |  |  |  | 
Cc1cc2c(=O)n(-c3ccc(F)cc3)c(C)nc2c(C(=O)O)c1C | > 100 | > 100 | > 100 | > 100 | > 100 | > 100 | > 100 | > 100 |  |  |  |  |  |  |  |  |  | 
COc1cc(/C=C/c2cc(/C=C/c3ccc(O)c(OC)c3)n(-c3c(C)cccc3C)c(=O)n2)ccc1O | 6.73 | 2.76 | 3.63 |  |  |  | 8.41 |  | 9.19 | 1.86 | 1.08 |  | 0.798 |  | 2.38 | 0.47 |  | 
O=C(CC1(O)C(=O)Nc2ccccc21)c1ccccc1Cl (stereo not given) | > 100 |  |  | > 100 | > 100 | > 100 | > 100 | > 100 | > 100 |  |  |  |  |  |  |  |  | 
Cc1ccc(NC(=O)c2cccc([N+](=O)[O-])c2O)c([N+](=O)[O-])c1 | 48.4 | 37.6 | 23 | 25.1 | 30.9 |  | 27 | 23.6 | 82.9 |  |  |  |  |  |  |  |  | 
CC(C)c1ccccc1NC(=O)C(=O)Cc1nc2ccccc2s1 | > 100 | > 100 | > 100 |  | > 100 | > 100 | > 100 | > 100 | > 100 |  |  |  |  |  |  |  |  | 
COc1ccc(/C=C2\CCCCC2=O)cc1 | > 100 | > 100 |  | > 100 | > 100 | > 100 | > 100 |  |  |  |  |  |  |  |  |  |  | 
C[C@]12CCC[C@H](Cl)C1(O)C[C@H](C(=O)O)CC2 (stereo not given in full) | > 100 | > 100 | > 100 | > 100 | > 100 | > 100 | > 100 | > 100 | > 100 |  |  |  |  |  |  |  |  | 
CN1C2(c3ccccc3)c3c(-c4ccccc4)sc(-c4ccccc4)c3C1(c1ccccc1)C1C(=O)N(c3ccccc3)C(=O)C12 (stereo not given) | > 100 | > 100 | > 100 | > 100 | > 100 |  | > 100 | > 100 | > 100 |  |  |  |  |  |  |  |  | 
COc1cc2c(cc1OC)-c1cc3cc(OC)c(OC)cc3n1CC2 | > 100 | > 100 | > 100 |  | > 100 | > 100 | > 100 |  | 95.8 |  |  |  |  |  |  |  |  | 
Cc1ccc(-c2nc(SCC(=O)O)n[nH]2)cc1 | > 100 | > 100 | > 100 |  | > 100 | > 100 | > 100 |  | > 100 |  |  |  |  |  |  |  |  | 
CN(C)c1ccc(N=Cc2c([O-])ccc3ccccc23)cc1.[C-]#[O+].[C-]#[O+].[Ir] | 64.6 | > 100 | 37.7 | 30.4 | 46.1 | 95 | 26.1 |  | 64.3 | 24.9 | 44.1 | 15.4 | 12.2 |  | 24.8 | 18 | 15.4 | 20.7
